These are literature values, as cited in patent US20240001339A1, “DRYING PROCESSES FOR BIO-COMPATIBLE SPME COATINGS” (SIGMS-ALDRICH CO. LLC, priority 2020, published 2024).

SMILES strings stand for the structures.

The pKa is the negative logarithm of the acid dissociation constant.

For data set [1] the following is noted: for conventional SPME devices.

For `NC(=O)N1c2ccccc2C=Cc2ccccc21` [Carbamazepine], the Log p is given as 2.45 and the pKa is recorded as 13.9. Moreover, the reference protein binding in data set [1] is 70-80%.
